pIC50: −log10 of the molar value. Converted amounts (≈) assume the structure as drawn. Like-named read-outs stand apart in the source and are kept apart here. Each block holds one molecule with its values, some of them ahead of it.
Columns and labels:
MIA PaCa-2 cells [1] = assay: In vitro anti-proliferative activity in combination with gemcitabine against MIA PaCa-2 cells; assay type: cell-based
Procedure: (§1) MIA PaCa-2 cells were seeded on a 384-well plate at 3000 cells/well, and 20 nM gemcitabine was added. After overnight adherence culture, DMSO or the compounds serially diluted 1:5 from 1000 nM were added. The viability was assessed 72 h after dosing by measuring the intracellular ATP content. The inhibition percentage of viable cells by the compounds was calculated by comparing with the DMSO group, and the IC50 value was calculated.

[2] = In vivo pharmacokinetic experiment in mice; design: species or system CD-1 female mice; details: mouse
Procedure: CD-1 female mice aged 7 to 10 weeks were intravenously administered and orally administered at a dose of 2 mg/kg and 10 mg/kg, respectively. The mice were fasted for at least 12 h before the administration and given food 4 h after the administration, and they were given ad libitum access to water during the experiment. On the day of the experiment, animals in the intravenous group were administered the corresponding compound by single injection via the tail vein at an administration volume of 10 mL/kg. Animals in the oral group were administered the corresponding compound by single intragastric injection at an administration volume of 10 mL/kg. The animals were weighed before administration, and the administration volume was calculated according to the body weight. The sample collection time was 0.083 h (injection group), 0.167 h, 0.5 h, 1 h, 2 h, 4 h, 8 h, and 24 h. About 200 μL of whole blood was collected through the submaxillary venous plexus at each time point and used to prepare plasma for concentration determination by high-performance liquid chromatography-tandem mass spectrometry (LC-MS/MS). All animals were euthanized with CO2 anesthesia after the PK samples were collected at the last time point. The plasma concentrations were processed using a non-compartmental model of Phoenix WinNonlin™ version 8.3 (Certara) pharmacokinetic software, and the pharmacokinetic parameters were calculated using a linear-log trapezoidal method.

in vitro = details: dog, MDCK
Procedure: (§2) In vitro passive permeability or the ability to serve as a P-glycoprotein (P-gp) transport substrate was tested using MDCK cells (MDCK wild type) or MDCK cells stably transduced with MDRI (MDCK-MDRI), respectively. The permeability experiment was performed in duplicate in a transwell system at a single concentration (5 μM). The cells were incubated for […] Apical-to-basolateral (A to B, A-B) transport and basolateral-to-apical (B to A, B-A) transport of the corresponding compound were determined, and the permeation rate (apparent permeability) (Papp×10^−6 cm/sec) and efflux ratio (Papp (B−A)/Papp (A−B)) of the test compound were calculated.

[3] = tested on: P-glycoprotein (P-gp, MDR1); assay: in vitro; details: dog
Procedure: as §2

[4] = In vitro solubility experiment; assay type: physicochemical; details: for solubility at 0.5 h: organic solvent or mixture, thermodynamic from solid
Procedure: (§3) Preparation of a standard curve: 10.01 mg of sample was weighed out and placed in a volumetric flask, and the volume was brought to 10 mL with acetonitrile/water (v/v, 9/1) to prepare 1.001 mg/mL of standard solution; the standard solution was then serially diluted to 0.5005 mg/mL, 0.1001 mg/mL, 0.05005 mg/mL, 0.01001 mg/mL, and 0.001001 mg/mL to generate the standard curve, and a linear equation was fitted by taking the peak area of the sample as a vertical axis and the concentration as a horizontal axis.
(§4) Solubility and stability test: 15 mg of sample was added to 3 mL of vehicle (FaSSIF, FeSSIF, SGF, or water) to prepare a corresponding suspension at a target concentration of 5 mg/mL. The prepared suspension was stirred on a shaker (800 rpm) at 37° C. for 0.5 h, and the suspension was then filtered. The filtrate was diluted with a diluent to a corresponding multiple so that the peak height could not exceed the standard curve, and the solubility and purity were detected using HPLC.

[5] = In vitro stability experiment (HPLC purity after stirring in vehicle); assay type: physicochemical
Procedure: as §3, §4

recombinant protein MYT1 = recombinant protein MYT1 (Homo sapiens (Human), UniProt Q99640); assay: In vitro assay for inhibiting MYT1 kinase activity (ADP-GLO); assay type: biochemical; details: 10 μM ATP, read-out: Inhibitory activity against recombinant protein MYT1 IC50
Procedure: Recombinant MYT1 protein and the compounds were pre-incubated at room temperature for 15 min, and 10 μM ATP was then added to start the reaction. The mixture was incubated at room temperature for another 60 min, and the ADP-GLO reagent from Promega was then added. The resulting mixture was incubated in the dark for 40 min, a detection solution was then added, and the mixture was incubated for another 45-60 min. The chemiluminescence was determined using ENVISION. The inhibition rate and IC50 were calculated compared to the DMSO group.

MIA PaCa-2 cells [6] = assay: In vitro anti-proliferative activity against MIA PaCa-2 cells (compound alone); assay type: cell-based; details: 72 h, intracellular ATP content
Procedure: as §1, with “cells/well.” for “cells/well, and 20 nM gemcitabine was added.”, “10 μM” for “1000 nM”

MDCK-MDR1 = assay: in vitro; details: MDCK-MDR1
Procedure: as §2

MDCK-Wild type = assay: in vitro
Procedure: as §2

[7] = female, CD-1, plasma, iv, injection 2 mg/kg
[8] = stability in FaSSIF, initial pH 6.52, 37° C.
[9] = stability in FeSSIF, initial pH 4.98, 37° C.
[10] = stability in SGF, initial pH 1.2, 37° C.
[11] = stability in Water, initial pH 7.7, 37° C.

Sequence of recombinant protein MYT1 (Q99640 whole entry): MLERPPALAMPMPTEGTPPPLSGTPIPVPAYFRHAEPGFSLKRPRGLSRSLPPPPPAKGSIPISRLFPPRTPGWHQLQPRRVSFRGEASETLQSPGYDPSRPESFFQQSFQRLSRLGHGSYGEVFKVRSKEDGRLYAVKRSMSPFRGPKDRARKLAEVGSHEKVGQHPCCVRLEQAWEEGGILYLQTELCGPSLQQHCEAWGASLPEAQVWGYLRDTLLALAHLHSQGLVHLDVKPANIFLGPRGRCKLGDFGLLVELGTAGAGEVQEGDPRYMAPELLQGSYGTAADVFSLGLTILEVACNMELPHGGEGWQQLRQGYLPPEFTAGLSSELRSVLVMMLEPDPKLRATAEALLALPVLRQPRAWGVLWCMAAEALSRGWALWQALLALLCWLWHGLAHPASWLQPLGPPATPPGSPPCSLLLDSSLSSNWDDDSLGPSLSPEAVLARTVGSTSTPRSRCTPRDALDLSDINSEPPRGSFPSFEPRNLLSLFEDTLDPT

pIC50 (MIA PaCa-2 cells [1]; Homo sapiens, MIA PaCa-2, 72 h, read-out: Anti-proliferative activity against MIA PaCa-2 cells (20 nM gemcitabine) IC50, with 20 nM gemcitabine, 72 h, intracellular ATP content): 7.54
AUC(0-t) [2, 7]: 376 ng·h/mL
half-life [2, 7]: 0.56 h
Vd ([2]; female, CD-1, plasma, iv, injection 2 mg/kg, read-out: Vdss): 2.46 L/kg
AUC(0-t) ([2]; female, CD-1, plasma, oral administration 10 mg/kg): 1030 ng·h/mL
Cmax ([2]; female, CD-1, plasma, oral administration 10 mg/kg, read-out: Cmax): 881 ng/mL
Cl ([2]; injection 2 mg/kg): 46.5 mL/min/kg
F % ([2]; oral administration 10 mg/kg): 54.7%
efflux ratio at 90 min, 5 μM (in vitro): 2.17
Papp A→B at 90 min, 5 µM (in vitro; Papp A-B Mean): 17.1 ×10⁻⁶ cm/s
Papp A→B at 90 min, 5 µM (in vitro; Papp A-B Sample - 01): 15.1 ×10⁻⁶ cm/s
Papp A→B at 90 min, 5 µM (in vitro; Papp A-B Sample - 02): 19.1 ×10⁻⁶ cm/s
Papp B→A at 90 min, 5 µM (in vitro; Papp B-A Mean): 37.2 ×10⁻⁶ cm/s
Papp B→A at 90 min, 5 µM (in vitro; Papp B-A Sample - 01): 38.5 ×10⁻⁶ cm/s
Papp B→A at 90 min, 5 µM (in vitro; Papp B-A Sample - 02): 35.9 ×10⁻⁶ cm/s
efflux ratio at 90 min, 5 μM ([3]; MDCK-MDR1): 2.64
Papp A→B at 90 min, 5 µM ([3]; MDCK-MDR1, Papp A-B Mean): 13.9 ×10⁻⁶ cm/s
Papp A→B at 90 min, 5 µM ([3]; MDCK-MDR1, Papp A-B Sample - 01): 13.9 ×10⁻⁶ cm/s
Papp A→B at 90 min, 5 µM ([3]; MDCK-MDR1, Papp A-B Sample - 02): 14 ×10⁻⁶ cm/s
Papp B→A at 90 min, 5 µM ([3]; MDCK-MDR1, Papp B-A Mean): 36.9 ×10⁻⁶ cm/s
Papp B→A at 90 min, 5 µM ([3]; MDCK-MDR1, Papp B-A Sample - 01): 37.6 ×10⁻⁶ cm/s
Papp B→A at 90 min, 5 µM ([3]; MDCK-MDR1, Papp B-A Sample - 02): 36.2 ×10⁻⁶ cm/s
solubility at 0.5 h ([4]; Methanol): 20200 µg/mL (≈ 62.2 mM)
solubility at 0.5 h ([4]; Tetrahydrofuran): 4520 µg/mL (≈ 13.9 mM)
HPLC purity (%, 220 nm) 0.5 h [5, 8]: 58.88%
HPLC purity (%, 220 nm) 0.5 h [5, 9]: 74.51%
HPLC purity (%, 220 nm) 0.5 h [5, 10]: 98.18%
HPLC purity (%, 220 nm) 0.5 h [5, 11]: 40.92%
SMILES: Cc1cc2c(C(N)=O)c(N)n(-c3c(C)ccc(O)c3C)c2nc1C [RP-6306, reference compound]

SMILES: Cc1cc2c(C(N)=O)c(N)n(-c3c(C)c(O)cc(F)c3C)c2nc1C (single isomer, unassigned) [Compound 2]
pIC50 (recombinant protein MYT1): ≥ 6.70
pIC50 (MIA PaCa-2 cells [6]): 5.36
pIC50 (MIA PaCa-2 cells [1]; read-out: Anti-proliferative activity against MIA PaCa-2 cells (20 nM gemcitabine) IC50, with 20 nM gemcitabine, 72 h, intracellular ATP content): 7.74
anti-proliferative activity against MIA PaCa-2 cells in combination with gemcitabine (in words) (MIA PaCa-2 cells [1]; with 20 nM gemcitabine): stronger anti-proliferative activity than that of RP-6306
Vdss compared to RP-6306 (in words) [2]: greater increase in Vdss compared to RP-6306
half-life T1/2 compared to RP-6306 (in words) [2]: longer half-life T1/2 compared to RP-6306
AUC0-last ([2]; injection 2 mg/kg): 337.7 ng·h/mL
Cl ([2]; injection 2 mg/kg): 94.4 mL/min/kg
T1/2 ([2]; injection 2 mg/kg): 3.32 h
Vdss ([2]; injection 2 mg/kg): 6.76 L/kg
AUC0-last ([2]; oral administration 10 mg/kg): 638.2 ng·h/mL
Cmax ([2]; oral administration 10 mg/kg): 603.3 ng/mL
F % ([2]; oral administration 10 mg/kg): 44.5%
T1/2 ([2]; oral administration 10 mg/kg): 3.84 h
Papp A-B Mean (MDCK-MDR1): 20.50 10^−6 cm · s^−1
Papp A-B Sample - 01 (MDCK-MDR1): 21.08 10^−6 cm · s^−1
Papp A-B Sample - 02 (MDCK-MDR1): 19.91 10^−6 cm · s^−1
Papp B-A Mean (MDCK-MDR1): 35.01 10^−6 cm · s^−1
Papp B-A Sample - 01 (MDCK-MDR1): 35.27 10^−6 cm · s^−1
Papp B-A Sample - 02 (MDCK-MDR1): 34.76 10^−6 cm · s^−1
permeability compared to RP-6306 (in words) (MDCK-MDR1): superior permeability to that of RP-6306
Papp A-B Mean (MDCK-Wild type): 27.10 10^−6 cm · s^−1
Papp A-B Sample - 01 (MDCK-Wild type): 27.93 10^−6 cm · s^−1
Papp A-B Sample - 02 (MDCK-Wild type): 26.28 10^−6 cm · s^−1
Papp B-A Mean (MDCK-Wild type): 42.24 10^−6 cm · s^−1
Papp B-A Sample - 01 (MDCK-Wild type): 39.97 10^−6 cm · s^−1
Papp B-A Sample - 02 (MDCK-Wild type): 44.50 10^−6 cm · s^−1
permeability compared to RP-6306 (in words) (MDCK-Wild type): superior permeability to that of RP-6306
solubility compared to RP-6306 (in words) ([4]; FaSSIF, FeSSIF, SGF, water, methanol, tetrahydrofuran): higher solubility in various vehicles
Solubility 0.5 h ([4]; FaSSIF, initial pH 6.52, 37° C.): 61 µg/mL (≈ 0.178 mM)
Solubility 0.5 h ([4]; FeSSIF, initial pH 4.98, 37° C.): 327 µg/mL (≈ 0.955 mM)
Solubility 0.5 h ([4]; Methanol): 40568 µg/mL (≈ 118 mM)
Solubility 0.5 h ([4]; SGF, initial pH 1.2, 37° C.): 4865 µg/mL (≈ 14.2 mM)
Solubility 0.5 h ([4]; Tetrahydrofuran): 6114 µg/mL (≈ 17.9 mM)
Solubility 0.5 h ([4]; Water, initial pH 7.7, 37° C.): 270 µg/mL (≈ 0.789 mM)
stability compared to RP-6306 (in words) ([5]; FaSSIF, FeSSIF, water): more stable than RP-6306 in FaSSIF, FeSSIF, and water
HPLC purity (%, 220 nm) 0.5 h [5, 8]: 88.76%
HPLC purity (%, 220 nm) 0.5 h [5, 9]: 95.98%
HPLC purity (%, 220 nm) 0.5 h [5, 10]: 98.69%
HPLC purity (%, 220 nm) 0.5 h [5, 11]: 96.4%
